Test results: US20180353445A1, “METHODS AND COMPOSITIONS RELATING TO PROTEASOME INHIBITOR RESISTANCE” (Whitehead Institute for Biomedical Research, priority 2017, published 2018)

Assays:
T47D cells [1] = assay: Combination of ABT-263 or ABT-199 with proteasome inhibitors, T47D cells with reduced PSMD2; assay type: cell-based, human; details: T47D cells with reduced PSMD2, 72 hours
Description: FIG. 18: Plots showing effect of various concentrations of ABT-263 (upper panels) or ABT-199 (lower panels) in combination with various concentrations of ixazomib un viability of T47D cells with reduced expression of PSMD2 (KB) (right panels) or control cells (left panels). Fold viability refers to the number of viable cells of the indicated type (PSMD2 KD or control cells) after culture in the presence of the test compounds (ixazomib +ABT-263 or ixazomib +ABT-199) divided by the number of viable cells of that type after culture in the absence of the test compounds. The concentrations of ABT-263 or ABT-199 tested are shown in the legend on the right side of each panel. If no concentration is listed, the compound was absent. Fold viability of control cells cultured in the presence of ixazomib alone (i.e., in the absence ABT-263 or ABT-199) is also shown in the panels showing effect of ixazomib +ABT-263 or ixazomib +ABT-199 on PSMD2 KD cells. […]
FIGS. 21A-21C: (FIG. 21A) Plot showing synergy of ABT-263 with ixazomib in T47D cells with reduced expression of PSMD2. […] The y-axis on each plot is the calculated EC50 in micromoles for either ixazomib or bortezomib in the presence of sublethal doses of ABT-263 or A.BT-199 as indicated. Compounds were added to the cells at the same time and cell viability was measured 72 hours later.

T47D cells [2] = assay: Competition co-culture of TurboRFP PSMD2 shRNA and GFP control shRNA T47D cells, FACS/microscopy; assay type: cell-based, human; details: 5 nM, 48 hours
Procedure: We created two cell lines—one line that expresses red fluorescent protein (turboRFP) and the doxycycline-inducible PSMD2-targeting shRNA and another line that expresses green fluorescent protein (GFP) and a doxycycline-inducible control shRNA (FIG. 6A). First, we induced shRNA expression with doxycycline for 48 hours. After recovery, we mixed shPSMD2-RFP and shControl-GFP cells at different ratios (either 1:1, 1:2, 1:5 or 1:10), adding the cells with reduced PSMD2 as the minority subpopulation. Twenty-four hours after plating, we treated these mixed populations of cells for 48 hours with increasing concentrations of bortezomib (5, 7.5 or 10 nM). We allowed the cells to recover in the absence of bortezomib and then we quantified the red and green cells by FACS analysis (FIG. 6A) and captured representative images by fluorescence microscopy (FIG. 6B),
The experiment described in Example 10 was repeated with minor differences using a panel of different proteasome inhibitors: MLN2238, MLN9708, and oprozomib T47D cells harboring a doxycycline inducible control shRNA (GFP) or a doxycycline-inducible PSMD2 shRNA (TurboRFP) were incubated with doxycycline for 3 days. Cells were collected, counted, and plated at a 1:10 ratio of TurboRFP-expressing PSMD2 shRNA cells/GFP expression control shRNA cells in the absence of Dox. Proteasome inhibitors were added at the specified concentrations and cells were maintained in culture. Cells were allowed to recover in the absence of the proteasome inhibitor and then analyzed by FACS (FIG. 8B, top) or visualized by microscopy (FIG. 8B, bottom). In the absence of proteasome inhibitors, the initial plating ratio of these cells (1:10) was maintained over the duration of the experiment (FIG. 8B). […]
Visualization and FACS analysis of GFP/RFP levels—cells were trypsinized in 100 μL Accumax® solution and further diluted into 100 μl PBSx1. The number of cells with red or areen fluorescent proteins was measured by MACSQuant® VYB according to manufactures protocol. […]

[3] = molecular target: β5-subunit of the proteasome (Homo sapiens, UniProt P28074); details: cited from earlier work

Row | SMILES | combination effect with bortezomib (T47D cells [1]) | combination effect with ixazomib (T47D cells [1]) | shift of surviving population toward PSMD2 shRNA cells (T47D cells [2]) | potency of inhibition of the β5-subunit [3]
1 | CC1(C)CCC(c2ccc(Cl)cc2)=C(CN2CCN(c3ccc(C(=O)NS(=O)(=O)c4ccc(N[C@H](CCN5CCOCC5)CSc5ccccc5)c(S(=O)(=O)C(F)(F)F)c4)cc3)CC2)C1 [ABT-263, navitoclax] | synergy | synergy |  | 
2 | CC(C)C[C@H](NC(=O)[C@H](Cc1ccccc1)NC(=O)c1cnccn1)B(O)O [bortezomib] |  |  | substantially shifted the populations of surviving cells | low nanomolar potency
